Experimental data as given in US20230138400A1, “METHODS AND PHARMACEUTICAL COMPOSITIONS FOR REPROGRAMING IMMUNE ENVIRONMENT IN A SUBJECT IN NEED THEREOF” (INSERM (INSTITUT NATIONAL DE LA SANTE ET DE LA RECHERCHE …, priority 2016, published 2023).

What was measured:
[1] = system: Unpolarized Th0 (from naive CD4 T cells of C57BL/6 mice); test: Unpolarized Th0 cells cultured with DDA, flow cytometry; format: cell-based, mouse
Method: FIGS. 3A-D. Unpolarized Th0 (prepared from naive CD4 T cells isolated from the spleen of C57BL/6 mice were cultivated in presence of anti-CD3, anti-CD28 and recombinant IL-2 as indicated in the “Materials and methods” section”) and with gradual concentration of DDA added at day 0 of culture (condition #1) or Day 4 of culture (condition #2). At the end, for each condition, the percentage of Th1 (CD4+Tbet+IFNg+) (A,B) and Treg CD4+Foxp3+IL10+ (C,D) was measured by flow cytometry.
Immune cell culture. Isolated CD4+ or CD8+ T cells were cultures in 96-well flat bottom plates (0.25×10^6 cells per wells) in 0.25 ml of complete RPMI 1640 media (10% FBS, 1% penicillin/Streptomycin, 1% sodium pyruvate, 1% HEPES and 50 μM b-mercaptoethanol) in the presence of 10 μg/ml plate-bound anti-mouse CD3 (2C11) and 2 μg/ml soluble α-CD28 (LEAF) in addition to 50 ng/ml of recombinant IL-2 (e-bioscience). DDA (synthesized by Affichem) diluted in the solvent vehicle was added at increasing concentration (0-1-10-100 and 1000 nM). […] After 5 days of culture, cells were collected and analyzed by flow cytometry. To investigate the impact of DDA on polarization of CD4 or CD8 naive T cells, DDA or the solvent vehicle was added at the beginning of culture at Day 0 or at Day 4 and cells was analyzed at day 5 by flow cytometry.

[2] = system: human and murine mammary tumor cells; test: Exosome secretion of mammary tumor cells treated with DDA; format: cell-based; conditions: data not shown
SKMEL-28 cells [3] = test: Exosome production of SKMEL-28 cells (shCTRL or shLXRbeta) treated with DDA; format: cell-based, human; conditions: for production of exosomes: 2.5 μM DDA for 24 h
Method: Obtention of LXRβ knock-down cells. SKMEL28 cells ([…]) or E0771 (3×10^6) were transfected with the Neon Transfection System (Invitrogen) with 1 μg or 3 μg of small hairpin RNA targeting human LXRβ or mouse LXRβ (two different shRNA were used) or with 1 μg control ShRNA. Transfected cells were selected in multiwell plates (10 000 cells/well) with puromycin ranging from 1-10 μg/ml. Two clones transfected with two different shRNA against LXRβ with LXRβ expression knocked-down by 70% and 80% (for SKMEL28) and by 90% and 95% (for E0771) and two control clones were selected.
Exosome quantification. 1) Protein content in exosomes was quantified by the spectrophotometric method of Lowry in presence of 0.1% w/v sodium dodecyl […]. 2) Exosomes were also quantified by flow cytometry following labeling with the fluorescent lipid Bodipy-ceramide (Invitrogen-Molecular Probes) for 1 hour at 37° C. Excess of Bodipy-ceramide was removed by filtration and washing through the 1000 kDa Vivaspin filter and exosomes were quantitated by FACS. 3) Numeration of exosomes vesicles was performed either by nano tracking analysis (Nanosight equipment, Malvern, France) or by TRPS (tunable resistive pulse sensing) technology (qNano equipment, Izon, UK).

SKMEL-28 cells [4] = test: Composition of exosomes from SKMEL-28 cells (shCTRL or shLXRbeta) treated with DDA; format: cell-based, human
Method: Exosome characterization. By flow cytometry: (tetraspanin analysis), exosomes (10 μg) were bound onto 10 μl of latex beads (Interfacial Dynamics/Invitrogen) in 200 μl PBS for 1 hour at 25° C. with gentle periodical shaking. Free sites on latex beads were saturated with 100 μl vesicle-free FBS for 30 min at 25° C. Beads with bound exosomes were centrifuged for 5 min at 5000 rpm, washed in 200 μl PBS, and diluted in 100 μl FACS buffer. Specific primary antibody or control isotype (1:50) were added and incubated at room temperature for 30 min. After centrifugation and washing, secondary antibody (1:100) was added and incubated for 30 min at room temperature. Beads with bound antibody-labelled exosomes were diluted in 1 ml FACS buffer and analyzed by flow cytometry (FACScalibur, Becton-Dickinson). By western-blot analysis: 5-20 μg exosomes were directly diluted in sample buffer and denaturated by heating at 60° C. for 10 min. Equal amounts of proteins were deposited in each well and proteins were resolved in SDS-PAGE and transferred onto PVDF membranes, saturated with 5% w/v non-fat milk in TBS-Tween 0.1%. […] Revelation from immunoblotting was performed by enhanced chemiluminescence and analysed by ChemiDoc imager (BioRad) or by Pxi imager (Ozyme). By sucrose gradient: the density of exosomes was measured through a sucrose gradient. […]

CC(C)CCCC(C)[C@H]1CCC2C3C[C@@H](NCCc4cnc[nH]4)[C@@]4(O)C[C@@H](O)CC[C@]4(C)C3CC[C@@]21C (some centres unmarked) [DDA, 5a-hydroxy-6b-[2-(1H-imidazol-4-yl)ethylamino]cholestan-3b-ol]
Th0 into Th1 differentiation ([1]; unpolarized Th0, DDA at day 0 or day 4 (FIG. 3)): does not activated | differentiation of Th0 into Treg phenotype ([1]; unpolarized Th0, DDA at day 0 or day 4, more impressive at day 4 (FIG. 3)): inhibits | production of exosome secreted into the media [2]: also observed | production of exosomes (SKMEL-28 cells [3]; SKMEL-28-shCTRL cells): about 2 fold | production of exosomes (SKMEL-28 cells [3]; SKMEL-28-shLXRbeta cells): does not stimulate | exosome secretion from human melanoma cells (SKMEL-28 cells [3]; SKMEL-28 cells, data not shown): stimulates exosome secretion | exosome content of rab27a and b, HSP70, Melan A, tyrosinase, TRP2, calreticuline (SKMEL-28 cells [4]; exosomes from SKMEL-28-shCTRL cells): enriched | exosome content of rab27a and b, HSP70, Melan A, tyrosinase, TRP2, calreticuline (SKMEL-28 cells [4]; exosomes from SKMEL-28-shLXRbeta cells): not enriched
